The subject of data set [1] is ACE. Details: method as in 5 sources, ref 8, 38 = [8]; PMID 30893907; doi:10.3390/md17030179; 8. Sun S. Xu X. Sun X. Zhang X. Chen X. Xu N. Preparation and Identification of ACE Inhibitory Peptides from the Marine Macroalga Ulva intestinalis Mar. Drugs 2019 17 179 10.3390/md17030179 PMC6471128 || [38]; doi:10.1016/j.jff.2015.10.025; 38. Forghani B. Zarei M. Ebrahimpour A. Philip R. Bakar J. Abdul-Hamid A. Saari N. Purification and characterization of angiotensin converting enzyme-inhibitory peptides derived from Stichopus horrens ||| ref 5, 9 = [5]; PMID 31108740; doi:10.1016/j.foodres.2019.03.035; 5. Zhao Y. Zhang L. Tao J. Chi C. Wang B. Eight antihypertensive peptides from the protein hydrolysate of Antarctic krill ( Euphausia superba ): Isolation, identification, and activity evaluation on h || [9]; PMID 30229250; doi:10.1039/C8FO00569A; 9. Ling Y. Sun L.P. Zhuang Y.L. Preparation and identification of novel inhibitory angiotensin-I-converting enzyme peptides from tilapia skin gelatin hydrolysates: Inhibition kinetics and molecular do ||| ref 38, 40 = [38]; doi:10.1016/j.jff.2015.10.025; 38. Forghani B. Zarei M. Ebrahimpour A. Philip R. Bakar J. Abdul-Hamid A. Saari N. Purification and characterization of angiotensin converting enzyme-inhibitory peptides derived from Stichopus horrens || [40]; PMID 29606478; doi:10.1016/j.foodchem.2018.02.107; 40. Tu M. Wang C. Chen C. Zhang R. Liu H. Lu W. Jing L. Du M. Identification of a novel ACE-inhibitory peptide from casein and evaluation of the inhibitory mechanisms Food Chem. 2018 256 98 104 10.101 ||| ref 41, 28 = [41]; doi:10.1016/j.lwt.2018.12.059; 41. Bhaskar B. Ananthanarayana L. Jamdar S. Purification, identification, and characterization of novel angiotensin I converting enzyme (ACE) inhibitory peptides from alcalase digested horse gram flou || [28]; doi:10.1016/j.jff.2017.03.008; 28. Lin K. Zhang L. Han X. Cheng D.Y. Novel angiotensin I-converting enzyme inhibitory peptides from protease hydrolysates of Qula casein: Quantitative structure-activity relationship modeling and mol ||| ref 25 = [25]; doi:10.1016/j.lwt.2016.08.047; 25. Wang X. Chen H. Fu X. Li S. Wei J. A novel antioxidant and ACE inhibitory peptide from rice bran protein: Biochemical characterization and molecular docking study LWT Food Sci. Technol. 2017 75 93. As to conditions: cited from earlier work; for IC50: literature comparison.

The subject of data set [2] is endothelin-1 (ET-1) in EA.hy926 cells. Nature of the data set: Effects on intracellular endothelin-1 (ET-1), ELISA of growth medium. Format: cell-based, human. To be noted: captopril 1.0 mg/mL as comparison, 48 h. The protocol: In a humidified atmosphere with 5% CO2, the EA.hy926 cells (a permanent hybridoma of the human umbilical vein endothelial cells and human lung carcinoma cell line A549) grown in 96-well plates were cultured in DMEM containing non-essential amino acids (10 mg/mL), streptomycin (0.1 mg/mL), and fetal bovine serum (0.1 g/mL) at 37 °C [5]. The cells (1.0 × 10^5 cells mL^−1) were treated with the synthesized peptides (0.5–1.5 mg/mL) for 24 h, and then the MTT assay was used to measure the cytotoxicity levels of the peptides. Moreover, EA.hy926 cells seeded in another 96-well plate (1.0 × 10^5 cells mL^−1) were cultured in DMEM at 37 °C for 24 h, and then treated with synthesized peptides (1–2 mg/mL) for 48 h. After that, the ET-1 content of the growth medium in each well was quantified by the ET-1 Elisa kit according to the instructions. Cells in the blank group were not treated with samples, while the cells in the positive group were treated with captopril (1 mg/mL). The inhibition ability on ET-1 was calculated as follows:(1) Inhibition abliliy (%)=(CB−Cs)/CB×100% where CB was the ET-1 content of the growth medium in the blank group and CS was the ET-1 content of the growth medium treated with the samples.

Data set [3] has as its system spontaneously hypertensive rats (SHRs). Nature of the data set: Antihypertensive effect in vivo, tail-cuff method. The arrangement: species or system rat. To be noted: oral 50, 100 and 150 mg/kg body weight every day (Figure S3). The protocol: Twenty male spontaneously hypertensive rats (SHRs; 11 weeks, 240 ± 20 g body weight) from Vital River Laboratory Animal Technology Co., Ltd. (Beijing, China) were randomly divided into five groups of four rats each: negative control, positive control, and high-, middle- and low- dosage groups. Normal diet and tap water were freely available. Rats in the high-, middle-, and low-dose groups were orally given the synthetic peptide (RWDISQPY) via gastric intubation at 150, 100, and 50 mg/kg/body weight once daily, respectively. Meanwhile, rats in the positive control were orally given captopril (14 mg/kg/body weight once daily), and rats in the negative control were just administrated saline (0.9%). The diastolic blood pressure (DBP) and systolic blood pressure (SBP) of the rats were measured by the tail-cuff method once a week. The heart rate was recorded simultaneously. The animal experiment was conducted in conformity with institutional guidelines for the care and use of laboratory animals in Shanxi Normal University (No. 20181003, 16 September 2018), Linfen, China. All of the rats received human care conforming to the National Institutes of Health Guide for Care and Use of Laboratory Animals (National Institute of Health Publication No. 85–23, revised).

Residues, ends and D or L forms follow the SMILES beside them.

Regarding “GSAGY [literature peptide identified from horrens protein]”, the IC50 (commonly the concentration needed to halve the response being measured) in data set [1] was 706 µM.

FGMPLDR: the IC50 in data set [1] is 219 µM.

For the compound `C[C@H](CS)C(=O)N1CCC[C@H]1C(=O)O` [captopril], the “Effect on ET-1 secretion” value in data set [2] is listed as “reduce ET-1 secretion”.

As for TVGMTAKF, the ACE inhibition pattern result in data set [1] is on record as “competitive”. Consider NMAINPSKENLCSTFCK, for which, in data set [1], the IC50 was 129 µM.

For VSRHFASYAN, in data set [1], the 50% inhibitory concentration (IC50) was 210 µM. For the compound `CC[C@H](C)[C@H](NC(=O)[C@H](CC(=O)O)NC(=O)[C@H](Cc1c[nH]c2ccccc12)NC(=O)[C@@H](N)CCCNC(=N)N)C(=O)N[C@@H](CO)C(=O)N[C@@H](CCC(N)=O)C(=O)N1CCC[C@H]1C(=O)N[C@@H](Cc1ccc(O)cc1)C(N)=O` [RWDISQPY] (H-RWDISQPY-NH2), in data set [3], the “Effect on heart rate” value was “no side effect” and the “Effect on normal increase in body weight” value was “no side effect”. Regarding PFPGPIPN, in data set [1], the ACE inhibition pattern entry is “competitive”. With QLLLQQ, the ACE inhibition pattern result in data set [1] was “competitive”. For the compound QAGLSPVR, the IC50 in data set [1] was 63.9 µM.
